Columns and labels:
Assay in all cases: HDAC catalytic activity, fluorogenic substrate
Format in all cases: biochemical
Details in all cases: 10-dose, 3-fold serial dilution starting at 100 μM, duplicates
HDAC1 = HDAC1 (Homo sapiens, UniProt Q13547)
Description: (§1) The compound (racemate) was resuspended in 100 mM DMSO and tested in a 10-dose IC50 with 3-fold serial dilution starting at 100 μM against HDACs 1-9, and 11. As reference compounds, Trichostatin A (TSA) and TMP269 were tested in a 10-dose IC50 with 3-fold serial dilution starting at 10 μM or 1 μM.
(§2) 10 μM Fluorogenic peptide from p53 residues 379-382 (RHKK(Ac)AMC) was used for the substrate for HDAC 1, 2, 3, and 6, 50 μM Fluorogenic HDAC Class2a Substrate (Trifluoroacetyl Lysine) was used for the substrate for HDAC 4, 5, 7, 9, and 11, 100 μM Fluorogenic peptide from p53 residues 379-382 (RHK(Ac)K(Ac)AMC) was used for the substrate for HDAC8.
(§3) IC50 values were calculated using the GraphPad Prism 4 program based on a sigmoidal dose-response equation and the blank (DMSO) value concentration was entered as 1.00E-12 M for curve fitting.

HDAC11 = target: T1, HDAC11 (Homo sapiens, UniProt Q96DB2)
T1 sequence (Q96DB2 1-347): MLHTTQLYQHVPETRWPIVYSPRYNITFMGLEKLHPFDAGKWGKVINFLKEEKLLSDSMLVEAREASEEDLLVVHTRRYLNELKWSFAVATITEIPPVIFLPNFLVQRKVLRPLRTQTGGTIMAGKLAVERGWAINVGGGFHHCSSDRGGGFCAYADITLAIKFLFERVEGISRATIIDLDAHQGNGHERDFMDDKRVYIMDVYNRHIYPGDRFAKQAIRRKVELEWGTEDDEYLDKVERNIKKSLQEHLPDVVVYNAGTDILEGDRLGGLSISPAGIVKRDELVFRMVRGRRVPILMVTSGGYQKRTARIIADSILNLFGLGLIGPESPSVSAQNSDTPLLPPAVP
Description: as §1, §2, §3

HDAC2 = HDAC2 (Homo sapiens, UniProt Q92769)
Description: as §1, §2, §3

HDAC3 = HDAC3 (Homo sapiens, UniProt O15379)
Description: as §1, §2, §3

HDAC4 = HDAC4 (Homo sapiens, UniProt P56524)
Description: as §1, §2, §3

HDAC6 = target: T2, HDAC6 (Homo sapiens, UniProt Q9UBN7)
T2 sequence (Q9UBN7 1-1215): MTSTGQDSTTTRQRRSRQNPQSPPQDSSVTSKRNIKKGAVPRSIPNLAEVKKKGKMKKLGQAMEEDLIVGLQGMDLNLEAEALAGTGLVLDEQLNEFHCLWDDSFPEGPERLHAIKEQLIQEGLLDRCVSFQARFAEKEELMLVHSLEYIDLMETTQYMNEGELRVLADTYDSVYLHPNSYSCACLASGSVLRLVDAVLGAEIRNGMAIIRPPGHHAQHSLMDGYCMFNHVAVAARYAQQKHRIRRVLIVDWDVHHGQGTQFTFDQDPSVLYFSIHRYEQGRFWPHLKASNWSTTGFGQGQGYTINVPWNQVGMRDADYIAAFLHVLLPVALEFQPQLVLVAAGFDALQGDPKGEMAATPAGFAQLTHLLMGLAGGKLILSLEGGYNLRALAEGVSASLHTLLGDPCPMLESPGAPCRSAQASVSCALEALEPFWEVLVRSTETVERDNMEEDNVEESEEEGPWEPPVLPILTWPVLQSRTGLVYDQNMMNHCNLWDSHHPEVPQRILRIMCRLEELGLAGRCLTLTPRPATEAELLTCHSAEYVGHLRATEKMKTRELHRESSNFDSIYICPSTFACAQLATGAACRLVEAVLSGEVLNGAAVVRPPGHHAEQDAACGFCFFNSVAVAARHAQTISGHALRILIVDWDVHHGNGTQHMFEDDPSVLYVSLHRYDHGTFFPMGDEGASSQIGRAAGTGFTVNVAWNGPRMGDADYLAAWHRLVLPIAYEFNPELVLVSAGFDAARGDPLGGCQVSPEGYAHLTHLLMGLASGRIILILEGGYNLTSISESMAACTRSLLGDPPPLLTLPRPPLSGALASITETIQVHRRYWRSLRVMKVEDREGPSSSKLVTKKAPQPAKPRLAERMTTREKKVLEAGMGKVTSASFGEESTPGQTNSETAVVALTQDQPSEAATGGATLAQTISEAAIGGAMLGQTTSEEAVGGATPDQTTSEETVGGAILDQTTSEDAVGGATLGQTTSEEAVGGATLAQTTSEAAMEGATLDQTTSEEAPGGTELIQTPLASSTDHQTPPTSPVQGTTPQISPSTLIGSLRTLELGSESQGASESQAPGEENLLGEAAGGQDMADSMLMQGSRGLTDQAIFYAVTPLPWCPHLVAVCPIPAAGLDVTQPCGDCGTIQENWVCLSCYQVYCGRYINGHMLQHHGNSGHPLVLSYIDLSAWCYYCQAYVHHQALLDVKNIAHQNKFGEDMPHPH
Description: as §1, §2, §3

HDAC8 = target: T3, HDAC8 (Homo sapiens, UniProt Q9BY41)
T3 sequence (Q9BY41 1-377): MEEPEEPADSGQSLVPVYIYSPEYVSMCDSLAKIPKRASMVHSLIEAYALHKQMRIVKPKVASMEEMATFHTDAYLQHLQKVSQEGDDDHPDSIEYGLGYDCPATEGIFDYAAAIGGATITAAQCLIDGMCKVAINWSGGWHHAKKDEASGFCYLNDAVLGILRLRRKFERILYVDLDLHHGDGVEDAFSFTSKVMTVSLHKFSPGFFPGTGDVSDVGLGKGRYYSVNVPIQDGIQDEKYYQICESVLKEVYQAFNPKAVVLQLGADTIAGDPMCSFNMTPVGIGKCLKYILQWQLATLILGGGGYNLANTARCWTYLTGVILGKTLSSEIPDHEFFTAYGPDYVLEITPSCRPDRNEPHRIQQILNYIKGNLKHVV
Description: as §1, §2, §3

HDAC9 = HDAC9 (Homo sapiens, UniProt Q9UKV0)
Description: as §1, §2, §3

Chain of HDAC2 (Q92769 whole entry): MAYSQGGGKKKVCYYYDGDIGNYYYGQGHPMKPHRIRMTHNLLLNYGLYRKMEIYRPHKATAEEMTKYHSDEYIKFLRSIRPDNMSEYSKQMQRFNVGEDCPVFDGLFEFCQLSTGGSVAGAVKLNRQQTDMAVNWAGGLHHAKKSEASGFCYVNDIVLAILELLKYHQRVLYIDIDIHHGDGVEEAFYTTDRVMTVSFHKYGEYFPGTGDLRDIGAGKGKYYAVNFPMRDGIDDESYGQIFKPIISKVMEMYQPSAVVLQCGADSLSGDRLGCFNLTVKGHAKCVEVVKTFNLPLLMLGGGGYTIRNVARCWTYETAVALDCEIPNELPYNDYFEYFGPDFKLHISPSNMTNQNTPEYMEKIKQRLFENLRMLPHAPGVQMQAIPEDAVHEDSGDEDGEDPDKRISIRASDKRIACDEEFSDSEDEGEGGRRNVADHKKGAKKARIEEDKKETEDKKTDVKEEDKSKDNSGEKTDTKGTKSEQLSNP
Chain of HDAC3 (O15379 whole entry): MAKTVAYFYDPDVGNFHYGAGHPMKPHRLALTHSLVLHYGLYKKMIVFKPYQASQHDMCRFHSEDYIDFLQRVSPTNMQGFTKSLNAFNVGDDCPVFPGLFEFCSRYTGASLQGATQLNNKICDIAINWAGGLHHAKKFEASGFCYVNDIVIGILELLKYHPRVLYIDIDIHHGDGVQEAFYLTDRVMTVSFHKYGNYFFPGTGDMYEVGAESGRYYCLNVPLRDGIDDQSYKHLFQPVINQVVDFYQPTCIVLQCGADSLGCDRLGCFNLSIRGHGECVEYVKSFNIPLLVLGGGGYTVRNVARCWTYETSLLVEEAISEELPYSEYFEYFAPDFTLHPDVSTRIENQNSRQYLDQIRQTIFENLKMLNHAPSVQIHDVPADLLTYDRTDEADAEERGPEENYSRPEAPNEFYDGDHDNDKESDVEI
Chain of HDAC3 (Q9Y618 395-489 partner limits assumed): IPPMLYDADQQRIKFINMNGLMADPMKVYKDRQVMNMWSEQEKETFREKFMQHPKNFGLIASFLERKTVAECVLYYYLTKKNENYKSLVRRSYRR
Chain of HDAC9 (Q9UKV0 whole entry): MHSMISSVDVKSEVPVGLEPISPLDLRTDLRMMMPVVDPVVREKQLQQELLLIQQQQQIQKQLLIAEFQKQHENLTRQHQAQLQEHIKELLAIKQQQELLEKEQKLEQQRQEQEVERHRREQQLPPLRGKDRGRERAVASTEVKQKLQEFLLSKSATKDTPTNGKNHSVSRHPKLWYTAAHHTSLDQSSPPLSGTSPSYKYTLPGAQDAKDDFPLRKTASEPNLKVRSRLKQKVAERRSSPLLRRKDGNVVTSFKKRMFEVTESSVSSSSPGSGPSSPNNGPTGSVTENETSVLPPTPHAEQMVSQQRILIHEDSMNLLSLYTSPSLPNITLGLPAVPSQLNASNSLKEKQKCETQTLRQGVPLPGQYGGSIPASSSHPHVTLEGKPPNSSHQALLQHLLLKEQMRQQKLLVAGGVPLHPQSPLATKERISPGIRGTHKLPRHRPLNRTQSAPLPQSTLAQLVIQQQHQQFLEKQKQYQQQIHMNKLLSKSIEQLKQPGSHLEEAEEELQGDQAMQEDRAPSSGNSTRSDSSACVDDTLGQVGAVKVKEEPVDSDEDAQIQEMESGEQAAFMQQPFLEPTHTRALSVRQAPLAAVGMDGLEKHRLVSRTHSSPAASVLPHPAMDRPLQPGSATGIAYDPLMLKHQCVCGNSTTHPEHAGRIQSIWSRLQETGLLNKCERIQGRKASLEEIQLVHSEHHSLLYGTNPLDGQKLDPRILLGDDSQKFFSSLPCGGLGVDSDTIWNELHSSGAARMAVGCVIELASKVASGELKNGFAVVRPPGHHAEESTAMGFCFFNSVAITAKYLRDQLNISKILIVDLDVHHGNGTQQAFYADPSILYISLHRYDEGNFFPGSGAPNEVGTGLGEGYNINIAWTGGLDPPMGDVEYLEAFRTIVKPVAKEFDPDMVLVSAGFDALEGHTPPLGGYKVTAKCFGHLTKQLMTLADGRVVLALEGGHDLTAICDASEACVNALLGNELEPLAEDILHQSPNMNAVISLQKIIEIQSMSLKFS
Chain of HDAC4 (P56524 whole entry, species assumed): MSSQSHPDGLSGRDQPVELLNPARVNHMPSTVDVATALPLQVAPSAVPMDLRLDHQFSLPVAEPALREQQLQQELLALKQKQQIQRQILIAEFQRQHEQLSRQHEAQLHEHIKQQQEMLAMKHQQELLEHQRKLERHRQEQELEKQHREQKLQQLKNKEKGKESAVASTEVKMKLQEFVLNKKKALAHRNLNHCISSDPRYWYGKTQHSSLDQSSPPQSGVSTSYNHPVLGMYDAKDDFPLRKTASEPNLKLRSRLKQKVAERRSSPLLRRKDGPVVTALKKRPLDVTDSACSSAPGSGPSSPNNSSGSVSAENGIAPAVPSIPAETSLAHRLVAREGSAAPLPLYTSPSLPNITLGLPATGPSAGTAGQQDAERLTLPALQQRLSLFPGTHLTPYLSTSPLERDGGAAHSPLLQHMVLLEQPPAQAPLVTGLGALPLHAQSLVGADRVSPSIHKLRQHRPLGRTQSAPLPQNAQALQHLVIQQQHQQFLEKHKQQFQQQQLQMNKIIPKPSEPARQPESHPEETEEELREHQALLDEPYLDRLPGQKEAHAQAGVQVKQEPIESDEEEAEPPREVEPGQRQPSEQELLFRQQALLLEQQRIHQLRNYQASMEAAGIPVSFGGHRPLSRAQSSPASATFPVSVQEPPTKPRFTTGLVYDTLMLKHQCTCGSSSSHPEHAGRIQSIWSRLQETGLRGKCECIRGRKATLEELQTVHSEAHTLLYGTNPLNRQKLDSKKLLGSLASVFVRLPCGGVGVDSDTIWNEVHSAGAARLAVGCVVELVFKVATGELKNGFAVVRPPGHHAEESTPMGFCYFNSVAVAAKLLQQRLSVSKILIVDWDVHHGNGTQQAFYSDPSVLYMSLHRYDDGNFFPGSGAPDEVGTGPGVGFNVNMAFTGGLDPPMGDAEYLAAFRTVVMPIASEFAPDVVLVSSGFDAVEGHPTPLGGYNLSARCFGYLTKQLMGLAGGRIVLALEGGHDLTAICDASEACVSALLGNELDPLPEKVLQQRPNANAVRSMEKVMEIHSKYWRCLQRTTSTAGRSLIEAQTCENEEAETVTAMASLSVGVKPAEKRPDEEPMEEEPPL
Chain of HDAC1 (Q13547 whole entry): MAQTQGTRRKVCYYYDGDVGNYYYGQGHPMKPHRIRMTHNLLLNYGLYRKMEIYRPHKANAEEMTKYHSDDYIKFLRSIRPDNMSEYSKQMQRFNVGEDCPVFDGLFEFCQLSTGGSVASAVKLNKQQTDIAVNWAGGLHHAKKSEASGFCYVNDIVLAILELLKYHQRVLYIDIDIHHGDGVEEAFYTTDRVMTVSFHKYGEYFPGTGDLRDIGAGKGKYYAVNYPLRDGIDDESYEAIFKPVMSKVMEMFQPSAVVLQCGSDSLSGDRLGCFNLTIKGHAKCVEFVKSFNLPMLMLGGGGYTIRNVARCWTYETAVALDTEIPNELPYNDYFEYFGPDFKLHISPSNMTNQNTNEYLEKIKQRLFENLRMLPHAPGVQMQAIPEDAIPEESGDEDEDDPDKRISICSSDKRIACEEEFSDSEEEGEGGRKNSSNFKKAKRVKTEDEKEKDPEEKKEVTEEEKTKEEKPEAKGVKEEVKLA

CC1CCC(C(=O)O)CN1C(=O)Cc1ccc(F)cc1Cl (racemic) [BnH12001, 1-(2-(2-chloro-4-fluorophenyl)acetyl)-6-methylpiperidine-3-carboxylic acid]
did not show any inhibitory effect: Inhibitory effect on HDAC1 catalytic activity (HDAC1) | Inhibitory effect on HDAC11 catalytic activity (HDAC11) | Inhibitory effect on HDAC2 catalytic activity (HDAC2) | Inhibitory effect on HDAC3 catalytic activity (HDAC3) | Inhibitory effect on HDAC4 catalytic activity (HDAC4) | Inhibitory effect on HDAC6 catalytic activity (HDAC6) | Inhibitory effect on HDAC8 catalytic activity (HDAC8) | Inhibitory effect on HDAC9 catalytic activity (HDAC9)

Source: patent US20250188032A1, “NITROGEN-CONTAINING HETEROCYCLIC COMPOUNDS AND USES THEREOF” (BNH RESEARCH CO., LTD., priority 2022, published 2025)
